Results on five compounds are retold here after US20240325399A1, “PHARMACEUTICAL COMPOSITION FOR PREVENTING OR TREATING CHOLANGITIS OR LIVER DISEASE CAUSED BY CHOLANGITIS COMPRISING ADENOSINE DERIVATIVE” (FUTURE MEDICINE CO., LTD., priority 2021, published 2024).

The subject of data set [1] is TPA-induced inflammation of the mouse ear. As to the kind of experiment: Anti-inflammatory activity, TPA-induced inflammation of the mouse ear. To be noted: for Anti-inflammatory activity (TPA-induced mouse ear inflammation): 0.5% in acetone, 20 μl, topical to ear. The format is in vivo, ICR mice. Here is the method: The adenosine derivatives of the present invention were examined for anti-inflammatory activity in the following animal test. Seven-week-old male ICR mice were treated with TPA (12-O-tetradecanoylphorbol-13-acetate, 20 l) in the right ear. […] Hydrocortisone was used at the same concentration as a control.
6 hrs after treatment with TPA, the mice were secondarily treated with the adenosine derivatives of the present invention. 24 hrs after TPA treatment, test animals were euthanized using a cervical dislocation method. Samples were obtained from the right ear using a 6 mm diameter punch. The activity was observed by measuring the ear sample using a microbalance. Percentages of inhibition were calculated using the following Equation 1. The compositions and amounts used in these experiments are summarized in Tables 14 to 17 and the anti-inflammatory activities thereof are shown in FIGS. 10 to 13.

Data set [2] has as its system ICR mice. As to the kind of experiment: Toxicity after intraperitoneal injection, 24 hrs observation, mice. To be noted: intraperitoneal 20, 10 and 1 mg/kg. The format is in vivo.
Description: (§1) The Adenosine Derivative of the present invention were assayed for cytotoxicity in animals.
For data set [3], the target named is T1, human A2A adenosine receptor (hA2A) (Homo sapiens, UniProt P29274).
T1 construct: expressed in transfected cells; host or cells: HEK 293 cell
As to the kind of experiment: Binding affinity for A2A adenosine receptor ([3H]CGS-21680, HEK 293 cell). The settings on record: percentage inhibition of specific binding of 10 μM labeled ligand in the presence of 10 μM of the unlabeled ligand NECA.
Description: Each of the compounds synthesized in the examples was measured for IC50 at least 6 different concentrations, and the measurements were analyzed using SigmaPlot software to determine Ki values.

In data set [4] the test system is Sprague Dawley rats. As to the kind of experiment: Toxicity after intraperitoneal injection, 24 hrs observation, rats. Format: in vivo. The settings on record: SD rats, intraperitoneal 20, 10 and 1 mg/kg.
Description: as §1
Data set [5] addresses T2, human A1 adenosine receptor (hA1) (Homo sapiens, UniProt P30542).
T2 construct: expressed in transfected cells; host or cells: CHO cells (ATCC No. CCL-61)
T2 sequence (P30542 1-326): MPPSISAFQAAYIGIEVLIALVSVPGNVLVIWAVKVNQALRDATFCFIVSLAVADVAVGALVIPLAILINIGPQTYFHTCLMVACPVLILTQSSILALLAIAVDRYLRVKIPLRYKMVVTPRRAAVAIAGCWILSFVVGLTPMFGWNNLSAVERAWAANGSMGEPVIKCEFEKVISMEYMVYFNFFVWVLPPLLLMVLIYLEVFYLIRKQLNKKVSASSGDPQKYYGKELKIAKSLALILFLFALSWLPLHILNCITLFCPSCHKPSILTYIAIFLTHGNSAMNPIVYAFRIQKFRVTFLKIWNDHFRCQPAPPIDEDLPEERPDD
As to the kind of experiment: Binding affinity for A1 adenosine receptor ([3H]CCPA, CHO cells). The settings on record: percentage inhibition of specific binding in the presence of 10 μM of the unlabeled ligand NECA.
Description: CHO cells (ATCC No. CCL-61), in which A1 and A3 adenosine receptors were expressed, were cultured in F-12 media (Gibco, U.S.A.) supplemented with 10% fetal bovine serum (FBS) and penicillin/streptomycin (100 units/ml and 100 g/ml), at 37° C. in a 5% CO2 atmosphere. […] Incubation for 1 hr in a 37° C. incubator was followed by rapid filtration in a vacuum using a cell collector (TOMTEC, U.S.A.). Subsequently, the test tubes were washed three times with 3 ml of the buffer before radioactivity was measured using a γ-counter. […] Ki for binding affinity was determined by subtracting the non-specific binding value from the total binding value. On the basis of the specific binding values, the samples were analyzed for binding affinity to various adenosine receptors.

The conditions of data set [6]: patients with liver cirrhosis; cited from earlier work.

T1 sequence (P29274 whole entry): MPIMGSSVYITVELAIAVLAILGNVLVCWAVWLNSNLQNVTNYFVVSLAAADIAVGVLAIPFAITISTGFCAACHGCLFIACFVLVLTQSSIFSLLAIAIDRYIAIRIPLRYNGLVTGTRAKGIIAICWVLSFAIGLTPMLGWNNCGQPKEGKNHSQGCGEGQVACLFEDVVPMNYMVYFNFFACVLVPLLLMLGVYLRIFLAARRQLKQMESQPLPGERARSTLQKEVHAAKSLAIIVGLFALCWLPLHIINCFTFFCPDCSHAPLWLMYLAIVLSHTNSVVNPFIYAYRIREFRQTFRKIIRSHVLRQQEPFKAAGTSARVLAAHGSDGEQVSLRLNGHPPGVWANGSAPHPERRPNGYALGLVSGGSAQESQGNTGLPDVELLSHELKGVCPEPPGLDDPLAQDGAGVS

With `O[C@@H]1[C@H](O)CS[C@H]1n1cnc2c(NCc3cccc(F)c3)nc(Cl)nc21` [Example 1, (2R,3R,4S)-2-(2-chloro-6-(3-fluorobenzylamino)-9H-purin-9-yl)tetrahydrothiophen-3,4-diol], the “Anti-inflammatory activity (TPA-induced mouse ear inflammation)” value in data set [1] is on record as “increased”.

With `O[C@@H]1[C@H](O)CS[C@H]1n1cnc2c(NCc3cccc(Cl)c3)nc(Cl)nc21` [Example 2, (2R,3R,4S)-2-(2-chloro-6-(3-chlorobenzylamino)-9H-purin-9-yl)tetrahydrothiophen-3,4-diol], the “Weight gain or feed intake versus control group” value in data set [2] and in data set [4] was “No difference in weight gain or feed intake” throughout. The “% inhibition of specific binding, hA2A” value in data set [3] was found to be 17.7%. The “% inhibition of specific binding, hA1” value in data set [5] is listed as 37.9%.

In the case of `COc1ccc(Cl)cc1CNc1nc(Cl)nc2c1ncn2[C@@H]1SC[C@@H](O)[C@H]1O` [Example 6, (2R,3R,4S)-2-(2-chloro-6-(5-chloro-2-methoxybenzylamino)-9H-purin-9-yl)tetrahydrothiophen-3,4-diol], the “Percentage of inflammation inhibition” value in data set [1] (0.5% in a mixture of distilled water and acetone (1:4)) is 34%. Besides, in data set [1], the “Anti-inflammatory activity (TPA-induced mouse ear inflammation)” value is given as “increased”.

Take `O[C@@H]1[C@H](O)CO[C@H]1n1cnc2c(NCc3cccc(I)c3)nc(Cl)nc21` [Example 16, (2R,3R,4R)-2-(2-chloro-6-(3-iodobenzylamino)-9H-purin-9-yl)tetrahydrofuran-3,4-diol]: the “Percentage of inflammation inhibition” value in data set [1] (0.5% in a mixture of DMSO and acetone (1:9)) is given as 79%.

`CC[C@H]1[C@@H](O)[C@@H]2[C@H](CC[C@]3(C)[C@@H]([C@H](C)CCC(=O)O)CC[C@@H]23)[C@@]2(C)CC[C@@H](O)C[C@@H]12` [OCA, obeticholic acid]: the “Liver safety in patients” value in data set [6] is “may induce acute liver failure in patients with liver cirrhosis”.
